Test results as given in patent publication US7341836B2, “Modified cyclic nucleotide gated ion channels” (The Regents of the University of Colorado, priority 2001, dated 2008).
Entries after “also recorded” stand apart in the source; their conditions may differ.

How the values were obtained:
[1] = test system: HEK-293 cells expressing C460W/E583M channels; assay: PGE1-induced cAMP responses in cell populations (Ca2+ influx through C460W/E583M channels); type: cell-based, human; conditions: for effect of PDE inhibitor added after PGE1: 100 μM IBMX or 10 μM RO-20-1724
Description: In this Example, experiments conducted to detect cAMP levels in cells are described. Changes in cyclic AMP concentrations in response to PGE1 stimulation were monitored in HEK-293 cells by measuring Ca^2+ influx through C460W/E583M CNG channels (See, Rich et al. [2001], supra). HEK-293 cells express a variety of extracellular receptors including prostanoid receptors (Thomas and Hoffman, Mol. Pharmacol., 49:907-914 [1996]), and the cAMP-specific PDE type IV (Rich et al. [2001], supra; and Hoffmann et al., EMBO J., 18:893-903 [1999]). Based on PCR analysis, these cells also appear to express AC types II, […], VI, and VII, (Hellevuo et al., Biochem. Biophys. Res. Commun., 192:311-318 [1993]). C460W/E583M channels were expressed heterologously using an adenovirus construct (See, Rich et al. [2001], supra). The Ca^2+ permeability of the channel was used to detect changes in local cAMP concentration; the fluorescent indicator fura-2 was used to monitor Ca^2+ entry. With this approach, incremental changes in cAMP concentration are readily detected as changes in relative Ca^2+ influx rates through C460W/E583M channels (See, Rich et al., [2001], supra).
Transient responses were observed over a large range of PGE1 concentrations, from 0.01 to 10 μM (FIG. 17, Panel A). […] The decline was unlikely to result primarily from a reduction in AC activity (e.g., receptor desensitization), because of the sustained accumulation of total cellular cAMP in the presence of IBMX (See, FIG. 16, Panel B). To verify this, 100 μM IBMX was added at various times after PGE1 application.
To test whether PGE1 did indeed increase the total PDE activity, 100 nM PGE1 were added at various times after the initial application of 100 nM PGE1 (a subsaturating concentration). There was a negligible response to the subsequent addition of PGE1, even after 50 min (FIG. 17, Panel D). Taken together, the results of the experiments shown in FIG. 17, Panels C and D argue that the cAMP transient is due to an initial increase in AC activity, followed by a more profound increase in PDE activity. […] As indicated herein, these processes are crucial for the generation of spatially and temporally distinct cAMP signals.

[2] = test system: rat olfactory CNG channel α subunit; assay: Excised inside-out patch recordings, cyclic nucleotide dose-response of CNG channel constructs; type: biochemical; conditions: 100 μM IBMX; 1 μM PGE1
In short: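 Inside-out patches were excised and recorded at 20-21° C., with symmetrical 130 mM NaCl, 2 mM HEPES, 0.02 mM EDTA, 1 mM EGTA, pH 7.6. Currents were elicited by 250 ms pulses to +50 and −50 mV; cyclic nucleotide-induced current was taken as the difference with and without cNMP. cAMP and cGMP dose-responses were fitted to the Hill equation for K1/2 and N.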

PDE III = conditions: cited from earlier work
PDE XI = biological target: T1, PDE XI (Homo sapiens, UniProt Q9HCR9); conditions: cited from earlier work
T1 construct: host or cells: heterologously expressed

PDE VI = conditions: cited from earlier work
PDE IV = conditions: cited from earlier work

T1 sequence (Q9HCR9 445-933 limits assumed): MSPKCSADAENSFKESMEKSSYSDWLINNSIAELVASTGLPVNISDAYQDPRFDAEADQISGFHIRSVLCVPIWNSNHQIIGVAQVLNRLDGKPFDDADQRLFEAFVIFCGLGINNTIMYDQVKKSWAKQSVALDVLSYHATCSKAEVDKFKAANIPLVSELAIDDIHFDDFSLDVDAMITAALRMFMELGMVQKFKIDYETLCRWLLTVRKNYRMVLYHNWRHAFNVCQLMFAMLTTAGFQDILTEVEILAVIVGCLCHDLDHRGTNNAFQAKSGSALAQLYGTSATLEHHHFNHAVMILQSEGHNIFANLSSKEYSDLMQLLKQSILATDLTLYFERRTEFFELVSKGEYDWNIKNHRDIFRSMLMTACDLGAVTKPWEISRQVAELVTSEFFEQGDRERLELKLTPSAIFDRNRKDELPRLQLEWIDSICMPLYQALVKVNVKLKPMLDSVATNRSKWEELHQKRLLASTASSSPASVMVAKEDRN

Row | Compound | effect of PDE inhibitor added after PGE1 [1] | effect on CNG channel activity in excised membrane patches [2] | IC50 (PDE III) [µM] | IC50 (PDE XI) [µM] | slopes of the IBMX-induced responses ([1]; 100 μM IBMX added 1-50 min after 100 nM PGE1) [s⁻¹] | IC50 (PDE VI) [µM] | IC50 (PDE IV) [µM]
1 | CCCCOc1cc(CC2CNC(=O)N2)ccc1OC (centres unmarked) [RO-20-1724, 4-(3-butoxy-4-methoxybenzyl)-2-imidazolidinone] | caused sharp increases in cAMP | no effect on channel activity | 52 |  |  |  | 
2 | COc1ccc(C2CNC(=O)C2)cc1OC1CCCC1 (centres unmarked) [Rolipram] |  |  |  | > 100 |  |  | 
3 | CC(C)Cn1c(=O)n(C)c(=O)c2[nH]cnc21 [IBMX, 3-isobutyl-1-methylxanthine] | triggered a rapid Ca^2+ influx | did not alter CNG channel activity; also recorded: no effect on channel activity | 2 | 49.8 | 0.0044 ± 0.0008 | 10 | 5 to 15
